In patent US20260078114A1, “COMPOUND USED AS INHIBITOR OF CDK4 KINASE AND USE THEREOF” (TYK MEDICINES, INC., priority 2022, published 2026):
Where two headings read alike, the source gives them in different places.

Tests used:
CDK6/CyclinD3 = CDK6/CyclinD3 (Homo sapiens, UniProt Q00534); assay: Kinase activity test (mobility shift assay, EZ Reader), CDK6; format: biochemical; conditions: CDK6/CyclinD3 5.00 nM, ATP 350 μM, FL-Peptide34
CDK4/CycD1 = CDK4/CycD1 (Homo sapiens, UniProt P11802); assay: Kinase activity test (mobility shift assay, EZ Reader), CDK4
Chain of CDK4/CycD1 (P11802 whole entry, species assumed): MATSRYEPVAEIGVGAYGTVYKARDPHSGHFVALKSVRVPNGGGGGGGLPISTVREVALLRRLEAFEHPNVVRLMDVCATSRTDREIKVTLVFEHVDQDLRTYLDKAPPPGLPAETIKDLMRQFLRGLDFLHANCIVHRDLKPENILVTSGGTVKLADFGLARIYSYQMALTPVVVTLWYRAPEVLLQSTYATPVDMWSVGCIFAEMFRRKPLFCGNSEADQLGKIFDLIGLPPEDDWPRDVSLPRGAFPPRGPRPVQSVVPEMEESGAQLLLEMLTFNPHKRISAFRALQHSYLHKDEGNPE
Chain of CDK4/CycD1 (P24385 whole entry partner, species assumed): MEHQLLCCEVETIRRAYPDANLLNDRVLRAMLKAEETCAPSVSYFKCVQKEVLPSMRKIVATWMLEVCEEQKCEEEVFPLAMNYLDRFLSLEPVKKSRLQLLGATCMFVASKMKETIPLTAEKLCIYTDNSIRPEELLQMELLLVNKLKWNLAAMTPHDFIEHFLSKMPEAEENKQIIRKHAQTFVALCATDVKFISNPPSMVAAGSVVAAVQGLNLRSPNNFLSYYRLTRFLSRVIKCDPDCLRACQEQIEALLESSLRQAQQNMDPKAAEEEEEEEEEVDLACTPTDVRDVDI
Method: The tested compounds were subjected to CDK4 and CDK6 kinase IC50 values test.
• (1) Preparing a 1.3× enzyme solution containing enzyme, substrate and cofactor as shown below. • (2) Adding 15 μL of 1.3× enzyme solution to each well and incubating for 30 min at room temperature. • (3) Starting the reaction by adding 5 μL of 4×ATP solution, with each test well containing the listed components and a final volume of 20 μL. • (4) Incubating for 150 minutes and then stopping the reaction by adding 75 μL of buffer (containing 0.5 M EDTA). • (5) Reading the data from each test well by EZ for analysis.
Percentage inhibition was calculated using the read conversion ratio (CR) according to the formula below:
The wells treated with DMSO were used as positive control (positive control) and the wells without enzyme were used as negative control (negative control).

[1] = tested on: Human breast cancer cell MCF-7; assay: Cellular antiproliferative assay (MTT, 5 days), MCF-7; format: cell-based; conditions: MCF-7 cells, 5 days incubation
Method: (§1) Human breast cancer cell MCF-7, ovarian cancer cell A2780, human mantle cell lymphoma cell JEKO-1. DMEM medium (Bio-Channel), DMSO (dimethyl sulfoxide), MTT (thiazolyl blue), 0.25% EDTA-Tripsin (tryptic digest), 1×PBS (phosphate buffer, PH7.2), 96-well plate (Corning), fetal bovine serum (FBS), 10,000 U/mL penicillin-G/streptomycin, high-speed cryo-centrifuge (EPPENDORF 5810R), enzyme-linked immunoassay (Tecan Spark).
(§2) • A) Tumor cells were cultured in DMEM (high sugar with 10% FBS and 100 U/mL penicillin-G/streptomycin) at 37° C., 5% CO2 and saturated humidity until 80-90% dense. • B) Removed the culture medium from 10 cm Petri dishes; • C) Rinsed the cells once with 10 ml 1×PBS; • D) Added 4 ml 0.25% EDTA-Tripsin into 37° C., 5% CO2 incubator for trypsin digestion for 5 minutes, transferred to 15 ml centrifuge tube, centrifuged at 200 g for 5 minutes, discarded the supernatant to get cell precipitate; • E) Resuspended with 4 ml DMEM medium, counted and adjust to 50,000 cells/ml. • F) Added cell suspension to 96-well plate with 100 μL per well volume and incubated overnight at 37° C., 5% CO2 incubator.
(§3) • A) Preparation of gradient dilution solution of the tested compound: the test compound was configured into 1 mM reservoir solution.
(§4) • A) Taking the cell culture plate and adding 10 μL of 5 mg/ml MTT in the biosafety cabinet; • B) Putting the cell culture plate back into the incubator and continued incubation for 3 hours; • C) Taking the cell culture plate and removing the culture medium, adding 100 μL isopropanol (containing 0.4 mM HCl, 0.1% NP-40), and shaking the bed at room temperature for 30 min; and • D) Determining the absorbance value by selecting 570 nm on a TECAN enzyme-linked immunoassay detector.
(§5) The % Cell Viability was calculated using the following formula:
(§6) [formula] • Lum_HC: 0.1% DMSO control cell reading • Lum_Sample: cell readings with compound added • Lum_LC: Blank medium reading

[2] = tested on: human mantle cell lymphoma cell JEKO-1; assay: Cellular antiproliferative assay (MTT, 5 days), JEKO-1; format: cell-based; conditions: JEKO-1 cells, 5 days incubation
Method: as §1, §2, §3, §4, §5, §6

[3] = tested on: ovarian cancer cell A2780; assay: Cellular antiproliferative assay (MTT, 5 days), A2780; format: cell-based, human; conditions: A2780 cells, 5 days incubation
Method: as §1, §2, §3, §4, §5, §6

Chain of CDK6/CyclinD3 (Q00534 whole entry, species assumed): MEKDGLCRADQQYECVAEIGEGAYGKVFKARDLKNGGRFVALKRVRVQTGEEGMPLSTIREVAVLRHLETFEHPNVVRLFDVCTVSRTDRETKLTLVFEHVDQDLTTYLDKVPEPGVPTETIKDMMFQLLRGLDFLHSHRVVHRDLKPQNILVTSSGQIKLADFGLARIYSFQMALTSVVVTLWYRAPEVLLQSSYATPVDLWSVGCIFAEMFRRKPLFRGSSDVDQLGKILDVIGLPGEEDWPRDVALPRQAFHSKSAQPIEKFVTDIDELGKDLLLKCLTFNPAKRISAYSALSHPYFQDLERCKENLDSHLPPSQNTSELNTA
Chain of CDK6/CyclinD3 (P30281 whole entry partner, species assumed): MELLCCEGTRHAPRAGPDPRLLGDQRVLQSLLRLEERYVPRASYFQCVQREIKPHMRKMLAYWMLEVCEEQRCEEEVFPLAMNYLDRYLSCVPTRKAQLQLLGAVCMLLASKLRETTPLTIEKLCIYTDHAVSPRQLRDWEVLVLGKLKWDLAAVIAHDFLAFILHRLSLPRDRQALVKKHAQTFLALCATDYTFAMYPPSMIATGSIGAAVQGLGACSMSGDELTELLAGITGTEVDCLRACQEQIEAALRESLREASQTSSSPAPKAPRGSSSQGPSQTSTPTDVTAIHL

Compound | IC50 (CDK6/CyclinD3) | IC50 ([1]; Homo sapiens, MCF7, 120 h) | IC50 ([2]; Homo sapiens, 120 h) | IC50 ([3]; Homo sapiens, 120 h) | further results
CC(C)N1CCOc2c(F)cc(-c3nc(NC4CCOCC4)ncc3F)cc21 [TA-8, 5-fluoro-4-(8-fluoro-4-isopropyl-3,4-dihydro-2H-benzo[b][1,4]oxazin-6-yl)-N-(tetrahydro-2H-pyran-4-yl)pyrimidin-2-amine] | 67.3 nM | – | – | – | IC50 (CDK4/CycD1): 21.4 nM
COC(=O)N1CCC[C@@H](Nc2ncc(Cl)c(-c3cc(F)c4c(c3)N(C(C)C)CCO4)n2)C1 [TA-10, methyl (R)-3-((5-chloro-4-(8-fluoro-4-isopropyl-3,4-dihydro-2H-benzo[b][1,4]oxazin-6-yl)pyrimidin-2-yl)amino)piperidine-1-carboxylate] | 206 nM | – | – | – | IC50 (CDK4/CycD1): 57.6 nM
CC(C)N1CCOc2c(F)cc(-c3nc(NC4CCCC(C(=O)N(C)C)C4)ncc3Cl)cc21 (stereo not drawn) [TA-14, 3-((5-chloro-4-(8-fluoro-4-isopropyl-3,4-dihydro-2H-benzo[b][1,4]oxazin-6-yl)pyrimidin-2-yl)amino)-N,N-dimethylcyclohexane-1-carboxamide] | > 500 nM | – | – | – | IC50 (CDK4/CycD1): 69.4 nM
CC(C)n1c(N2CCCC2=O)nc2c(F)cc(-c3nc(N[C@@H]4CCOC[C@H]4O)ncc3Cl)cc21 [TA-54] | > 500 nM | – | – | – | –
CC(C)n1c(N(C)C)nc2c(F)cc(-c3nc(N[C@H]4CC[C@@H](NS(C)(=O)=O)CC4)ncc3Cl)cc21 [TB-4] | > 500 nM | – | – | – | –
CN1CCCn2c1nc1c(F)cc(-c3nc(N[C@@H]4CCOC[C@H]4O)ncc3C(F)(F)F)cc12 [TB-41, (3S,4R)-4-((4-(9-fluoro-1-methyl-1,2,3,4-tetrahydrobenzo[4,5]imidazo[1,2-a]pyrimidin-7-yl)-5-(trifluoromethyl)pyrimidin-2-yl)amino)tetrahydro-2H-pyran-3-ol] | > 500 nM | 500 to 2000 nM | 500 to 2000 nM | 500 to 2000 nM | –
CC1CCN(C)c2nc3c(F)cc(-c4nc(NC5CCN(S(C)(=O)=O)CC5)ncc4Cl)cc3n21 (stereo not drawn) [TB-51, 5-chloro-4-(9-fluoro-1,4-dimethyl-1,2,3,4-tetrahydrobenzo[4,5]imidazo[1,2-a]pyrimidin-7-yl)-N-(1-(methylsulfonyl)piperidin-4-yl)pyrimidin-2-amine] | – | ≤ 500 nM | ≤ 500 nM | ≤ 500 nM | –
CN1CCn2c1nc1c(F)cc(-c3nc(NC4CCN(S(C)(=O)=O)CC4)ncc3Cl)cc12 [TB-52, 5-chloro-4-(8-fluoro-1-methyl-2,3-dihydro-1H-benzo[d]imidazo[1,2-a]imidazol-6-yl)-N-(1-(methylsulfonyl)piperidin-4-yl)pyrimidin-2-amine] | – | ≤ 500 nM | ≤ 500 nM | ≤ 500 nM | –
CNS(=O)(=O)c1ccc(Nc2ncc(Cl)c(-c3cc(F)c4nc5n(c4c3)C(C)CCN5C)n2)cc1 (stereo not drawn) [TB-53, 4-((5-chloro-4-(9-fluoro-1,4-dimethyl-1,2,3,4-tetrahydrobenzo[4,5]imidazo[1,2-a]pyrimidin-7-yl)pyrimidin-2-yl)amino)-N-methylbenzenesulfonamide] | – | ≤ 500 nM | ≤ 500 nM | ≤ 500 nM | –
CC(C)n1c(N2CCOC2=O)nc2c(F)cc(-c3nc(Nc4ccc(S(=O)(=O)NC5(C#N)CC5)cc4)ncc3Cl)cc21 [TB-68] | > 500 nM | – | – | – | –
CC(C)n1c(N2CCOC2=O)nc2c(F)cc(-c3nc(Nc4ccc(S(=O)(=O)NCCN(C)C)cc4)nc4[nH]cnc34)cc21 [TB-70] | – | ≤ 500 nM | ≤ 500 nM | ≤ 500 nM | –
CN1CCCn2c1nc1c(F)cc(-c3nc(Nc4ccncc4)ncc3Cl)cc12 [TB-90] | – | 500 to 2000 nM | ≤ 500 nM | ≤ 500 nM | –
C[C@@H]1CCN(C)c2nc3c(F)cc(-c4nc(N[C@@H]5CCOC[C@H]5O)ncc4Cl)cc3n21 [TB-91, (3S,4R)-4-((5-chloro-4-((R)-9-fluoro-1,4-dimethyl-1,2,3,4-tetrahydrobenzo[4,5]imidazo[1,2-a]pyrimidin-7-yl)pyrimidin-2-yl)amino)tetrahydro-2H-pyran-3-ol] | – | ≤ 500 nM | ≤ 500 nM | ≤ 500 nM | –
COC(=O)N1CCC(Nc2ncc(Cl)c(-c3cc(F)c4nc5n(c4c3)CCCN5C)n2)CC1 [TB-93, methyl 4-((5-chloro-4-(9-fluoro-1-methyl-1,2,3,4-tetrahydrobenzo[4,5]imidazo[1,2-a]pyrimidin-7-yl)pyrimidin-2-yl)amino)piperidine-1-carboxylate] | > 500 nM | 500 to 2000 nM | ≤ 500 nM | ≤ 500 nM | –
CN1CCCn2c1nc1c(F)cc(-c3nc(NC4CCC(F)(F)CC4)ncc3Cl)cc12 [TB-95, 5-chloro-N-(4,4-difluorocyclohexyl)-4-(9-fluoro-1-methyl-1,2,3,4-tetrahydrobenzo[4,5]imidazo[1,2-a]pyrimidin-7-yl)pyrimidin-2-amine] | > 500 nM | – | – | – | –
COCc1cc(Nc2ncc(Cl)c(-c3cc(F)c4nc5n(c4c3)CCCN5C)n2)ccn1 [TB-130, 5-chloro-4-(9-fluoro-1-methyl-1,2,3,4-tetrahydrobenzo[4,5]imidazo[1,2-a]pyrimidin-7-yl)-N-(2-(methoxymethyl)pyridin-4-yl)pyrimidin-2-amine] | – | ≤ 500 nM | ≤ 500 nM | ≤ 500 nM | –
CN1CCCn2c1nc1c(F)cc(-c3nc(NC4CCOCC4)ncc3Cl)cc12 [TB-132, 5-chloro-4-(9-fluoro-1-methyl-1,2,3,4-tetrahydrobenzo[4,5]imidazo[1,2-a]pyrimidin-7-yl)-N-(tetrahydro-2H-pyran-4-yl)pyrimidin-2-amine] | – | 500 to 2000 nM | ≤ 500 nM | ≤ 500 nM | –
CN1CCCn2c1nc1c(F)cc(-c3nc(Nc4ccc(C#N)cc4)ncc3Cl)cc12 [TB-133, 4-((5-chloro-4-(9-fluoro-1-methyl-1,2,3,4-tetrahydrobenzo[4,5]imidazo[1,2-a]pyrimidin-7-yl)pyrimidin-2-yl)amino)benzonitrile] | – | ≤ 500 nM | ≤ 500 nM | ≤ 500 nM | –
CCS(=O)(=O)N1CCC(Nc2ncc(Cl)c(-c3cc(F)c4nc5n(c4c3)CCCN5C)n2)CC1 [TB-143, 5-chloro-N-(1-(ethylsulfonyl)piperidin-4-yl)-4-(9-fluoro-1-methyl-1,2,3,4-tetrahydrobenzo[4,5]imidazo[1,2-a]pyrimidin-7-yl)pyrimidin-2-amina] | – | ≤ 500 nM | ≤ 500 nM | ≤ 500 nM | –
CNS(=O)(=O)N1CCC(Nc2ncc(Cl)c(-c3cc(F)c4nc5n(c4c3)CCCN5C)n2)CC1 [TB-144, 4-((5-chloro-4-(9-fluoro-1-methyl-1,2,3,4-tetrahydrobenzo[4,5]imidazo[1,2-a]pyrimidin-7-yl)pyrimidin-2-yl)amino)-N-methylpiperidine-1-sulfonamide] | – | ≤ 500 nM | ≤ 500 nM | ≤ 500 nM | –
CC1(C)CSc2nc3c(F)cc(-c4nc(N[C@@H]5CCOC[C@H]5O)ncc4Cl)cc3n2C1 [TB-146] | – | – | – | – | IC50 ([1]; read-out: MCF7 IC50): ≤ 500 nM; IC50 [2]: ≤ 500 nM; IC50 [3]: ≤ 500 nM
C[C@H]1CCN(C)c2nc3c(F)cc(-c4cc(N[C@@H]5CCOC[C@H]5O)ncc4Cl)cc3n21 [TB-149] | – | – | – | – | IC50 ([1]; read-out: MCF7 IC50): ≤ 500 nM; IC50 [2]: ≤ 500 nM; IC50 [3]: ≤ 500 nM
C[C@H]1C[C@H](C)n2c(nc3c(F)cc(-c4nc(N[C@@H]5CCOC[C@H]5O)ncc4Cl)cc32)N1C [TB-153] | – | ≤ 500 nM | ≤ 500 nM | ≤ 500 nM | –
C[C@@H]1C[C@H](C)n2c(nc3c(F)cc(-c4nc(N[C@@H]5CCOC[C@H]5O)ncc4Cl)cc32)N1C [TB-154] | – | ≤ 500 nM | ≤ 500 nM | ≤ 500 nM | –
CN1C(=O)CC(C)(C)n2c1nc1c(F)cc(-c3cc(N[C@@H]4CCOC[C@H]4O)ncc3Cl)cc12 [TB-162] | – | – | – | – | IC50 ([1]; read-out: MCF7 IC50): ≤ 500 nM; IC50 [2]: ≤ 500 nM; IC50 [3]: ≤ 500 nM
